Measured values reported in ChEMBL document CHEMBL1944536, “Increased endothelial cell selectivity of triazole-bridged dihalogenated A-ring analogues of combretastatin A-1” (Bioorg Med Chem, 2012).

Assays:
[1] = tested on: HUVEC; assay: Antivascular activity against HUVEC cells assessed as cell growth inhibition after 24 hrs by xCELLigence assay; assay type: functional, cell-based; details: Homo sapiens
[2] = tested on: HUVEC; assay: Antivascular activity against HUVEC cells assessed as cell growth inhibition after 48 hrs by xCELLigence assay; assay type: functional, cell-based; details: Homo sapiens
[3] = tested on: SK-OV-3; assay: Cell cycle arrest in human SKOV3 cells assessed as accumulation at G2/M phase at 5 nM by flow cytometry (reference value: 14%); assay type: functional
[4] = tested on: SK-OV-3; assay: Cytotoxicity against human SKOV3 cells after 48 hrs by MTS assay; assay type: functional, cell-based; details: SK-OV-3, 48 h
[5] = tested on: SK-OV-3; assay: Cell cycle arrest in human SKOV3 cells assessed as accumulation at G1 phase at 5 nM by flow cytometry (reference value: 54%); assay type: functional
[6] = tested on: SK-OV-3; assay: Cell cycle arrest in human SKOV3 cells assessed as accumulation at S phase at 5 nM by flow cytometry (reference value: 31%); assay type: functional
[7] = tested on: HUVEC; assay: Antivascular activity against HUVEC cells assessed as cell growth inhibition measured every 30 mins for 21 hrs by xCELLigence assay; assay type: functional, cell-based; details: Homo sapiens
[8] = species: Bos taurus; assay: Inhibition of bovine tubulin polymerization at 5 uM measured every 30 secs for 60 mins by spectrophotometry relative to control
[9] = tested on: HeLa; assay: Cytotoxicity against human HeLa cells; assay type: functional, cell-based

## COc1ccc(/C=C\c2cc(OC)c(OC)c(OC)c2)c(O)c1O [COMBRETASTATIN A-1]
[1]
  IC50: 2.6 nM
[2]
  IC50: 4.1 nM

## COc1ccc(/C=C\c2cc(I)c(OC)c(I)c2)cc1O
[3]
  Activity: 84%

## COc1ccc(/C=C\c2cc(OC)c(OC)c(OC)c2)cc1O [COMBRETASTATIN A4]
[4]
  IC50: 1.7 nM
[5]
  Activity: 40%
[6]
  Activity: 23%
[3]
  Activity: 31%
[7]
  IC50: 2.2 nM
[8]
  inhibition: 57.6%

## COc1ccc(/C=C\c2cc(Br)c(OC)c(Br)c2)cc1O
[3]
  Activity: 54%

## COc1cc(-c2nn[nH]c2-c2ccc(N)cc2)cc(OC)c1OC
[9]
  IC50: 5000 nM
